Source: patent publication US12617770B2, “IRAK inhibitor and preparation method therefor and use thereof” (WUHAN CREATERNA SCIENCE AND TECHNOLOGY CO., LTD., priority 2019, dated 2026)

What was measured:
CYP3A4 = biological target: T1, CYP3A4 (Homo sapiens, UniProt P08684); assay: CYP450 inhibition in human liver microsomes, CYP3A4-M; assay type: in vitro ADME; conditions: pooled (mixed) human liver microsomes, probe midazolam; human liver microsomes, midazolam; read-out: CYP3A4 IC50
T1 construct: The test compounds were co-incubated with the human liver microsomes and a probe substrate midazolam (CYP3A4); tissue Corning (USA); host or cells: mixed (pooled) human liver microsomes
T1 sequence (P08684 whole entry): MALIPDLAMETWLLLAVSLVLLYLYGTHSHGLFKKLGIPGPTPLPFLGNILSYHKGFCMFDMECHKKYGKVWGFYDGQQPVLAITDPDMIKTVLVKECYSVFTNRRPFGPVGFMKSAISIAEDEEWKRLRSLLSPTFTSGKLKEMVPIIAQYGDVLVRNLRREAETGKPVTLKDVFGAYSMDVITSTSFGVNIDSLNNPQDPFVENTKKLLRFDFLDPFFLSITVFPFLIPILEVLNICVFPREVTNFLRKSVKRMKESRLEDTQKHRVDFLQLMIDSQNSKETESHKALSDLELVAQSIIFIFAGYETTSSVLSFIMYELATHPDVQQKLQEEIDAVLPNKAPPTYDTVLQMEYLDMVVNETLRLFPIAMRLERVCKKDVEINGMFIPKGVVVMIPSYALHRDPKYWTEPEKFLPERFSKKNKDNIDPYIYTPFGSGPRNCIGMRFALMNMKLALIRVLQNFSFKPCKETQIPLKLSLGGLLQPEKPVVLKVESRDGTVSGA
Experimental: (§1) This study was intended to investigate the inhibitory effect of the test compounds on 5 major enzymes in human P450 superfamily, CYP1A2, 2C9, 2C19, 2D6 and 3A4-M. The mixed human liver microsomes used in this assay were purchased from Corning (USA). The test compound (compound 14) was co-incubated at 7 concentrations with human liver microsomes and five probe substrates (phenacetin for CYP1a2, diclofenac for CYP2C9, mephenytoin for CYP2C19, dextromethorphan for CYP2D6, midazolam for CYP3A4-M, mixed). The reaction was initiated by adding coenzyme NADPH, and terminated by adding acetonitrile containing internal standard. After the proteins were precipitated, the supernatant was centrifuged. The characteristic metabolites in the supernatant (acetaminophen for CYP1A2, 4-hydroxydiclofenac for CYP2C9, 4-hydroxymephenytoin for CYP2C19, dextrorphan for CYP2D6, 1-hydroxymidazolam for CYP3A4-M) were analyzed by LC-MS/MS. The influence of the test compounds on production of the characteristic metabolites was finally analyzed on the basis of the data obtained. A selective inhibitor (ketoconazole for CYP3A4-M) may be used as positive control. All samples were tested in duplicate.

[1] = Pharmacokinetic study, single oral gavage dosing; assay type: in vivo; conditions: mouse, 40 mg/kg, 40 mpk, 15% solutol HS15 + 85% PBS, ICR mice, plasma; for AUC(0-t): read-out: Area under curve AUC0-t; for AUC(0-inf): read-out: Area under curve AUC0-∞; for MRT: read-out: Average retention time MRT; for half-life: read-out: Half life t1/2 (converted); for Cmax: read-out: Peak concentration Cmax; for Tmax: read-out: Time to peak tmax
CYP2C19 = biological target: T2, CYP2C19 (Homo sapiens, UniProt P33261); assay: CYP450 inhibition in human liver microsomes, CYP2C19; assay type: in vitro ADME; conditions: pooled (mixed) human liver microsomes, probe mephenytoin
T2 construct: co-incubated at 7 concentrations with human liver microsomes and five probe substrates; tissue Corning (USA); host or cells: mixed (pooled) human liver microsomes
T2 sequence (P33261 whole entry): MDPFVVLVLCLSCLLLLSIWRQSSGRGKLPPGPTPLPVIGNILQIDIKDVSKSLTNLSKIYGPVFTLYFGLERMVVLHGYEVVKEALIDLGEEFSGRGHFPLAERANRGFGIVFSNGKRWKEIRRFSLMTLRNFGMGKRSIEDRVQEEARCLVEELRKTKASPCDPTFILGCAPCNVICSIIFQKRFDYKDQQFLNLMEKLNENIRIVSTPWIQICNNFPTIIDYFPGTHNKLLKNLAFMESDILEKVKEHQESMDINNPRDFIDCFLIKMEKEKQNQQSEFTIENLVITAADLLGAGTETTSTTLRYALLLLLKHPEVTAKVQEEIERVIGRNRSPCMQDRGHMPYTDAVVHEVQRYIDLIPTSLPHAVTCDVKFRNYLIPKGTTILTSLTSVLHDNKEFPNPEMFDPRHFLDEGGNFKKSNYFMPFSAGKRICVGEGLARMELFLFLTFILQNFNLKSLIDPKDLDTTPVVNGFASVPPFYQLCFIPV
Experimental: as §1

human IRAK4 = biological target: T3, human IRAK4 (Homo sapiens, UniProt Q9NWZ3); assay: IRAK4 MSA (Mobility-Shift Assay) at Km concentration of ATP; assay type: biochemical; conditions: GST-IRAK4 1 nM, ATP 37 μM (Km); read-out: IC50 for inhibiting human IRAK4 activity
T3 construct: purchased Cama (so in the source)
T3 sequence (Q9NWZ3 1-460): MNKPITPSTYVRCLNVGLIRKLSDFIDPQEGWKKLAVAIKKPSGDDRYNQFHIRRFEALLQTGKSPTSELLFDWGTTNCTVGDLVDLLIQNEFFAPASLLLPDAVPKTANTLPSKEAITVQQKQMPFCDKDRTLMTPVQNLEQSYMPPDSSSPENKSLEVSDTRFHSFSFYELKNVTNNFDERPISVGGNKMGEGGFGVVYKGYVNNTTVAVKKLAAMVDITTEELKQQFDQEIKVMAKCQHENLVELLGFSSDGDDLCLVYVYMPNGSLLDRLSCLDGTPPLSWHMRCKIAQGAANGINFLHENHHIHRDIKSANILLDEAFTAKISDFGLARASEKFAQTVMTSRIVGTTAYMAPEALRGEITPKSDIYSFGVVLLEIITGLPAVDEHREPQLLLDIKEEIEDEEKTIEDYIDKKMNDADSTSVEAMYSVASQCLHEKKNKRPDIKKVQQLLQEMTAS
Experimental: A recombinant fusion protein of N-terminal GST (glutathione-S-transferase) and human IRAK4 was used as enzyme (GST-IRAK4, kinase IRAK4 (Cama, CAT No. 09-145)) at a final concentration of 1 nM; ATP (Sigma. CAT No. A7699-1G) was at a final concentration of 37 μM; • the substrates used for the kinase reaction were 5-FAM (5-carboxyfluorescein)-labeled polypeptide (5-FAM-[…]-COOH) and substrate peptide FAM-P8 (GL Biochem, CAT No. 112396) at final concentrations of 5 μM.
In this assay, 500 μM stock solutions of the compounds were prepared in 100% DMSO, and serially 4-fold diluted to the 10th concentration gradient with 100% DMSO, followed by a 10-fold dilution in the compound buffer (50 mM HEPES, pH 7.5, 0.00015% Brij-35) to give intermediate dilutions of the compounds at a final concentration of 10 μM−0.04 nM containing 10% DMSO. 5 μL of the intermediate dilution was transferred into a black 384-well plate.
IRAK4 was diluted to 2.5 nM in the kinase buffer (50 mM HEPES, pH 7.5, 0.00015% Brij-35, 2 mM DTT). 10 μL of the IRAK4 dilution was transferred to the 384-well plate and co-incubated with the compound for 10-15 min.
The substrate and ATP were diluted to 12.5 μM and 92.5 μM with reaction buffer (50 mM HEPES, pH 7.5, 0.00015% Brij-35, 10 mM MgCl2), respectively. 10 μL of the dilution was transferred to a 384-well plate and incubated at 28° C. for 1 h. The reaction was terminated by adding 25 μL of 50 mM EDTA to the 384-well plate.
The inhibition rate of IRAK4 by the compounds was calculated by measuring the rate of phosphorylated substrate using a Caliper EZ Reader (PerkinElmer) and the IC50 was calculated by XL-fit software. […] In particular, some exemplary compound activity values are as follows: […]

| Compound | IC50 (CYP3A4) | AUC(0-t) [1] | AUC(0-inf) [1] | MRT [1] | half-life [1] | Cmax [1] | Tmax [1] | IC50 (CYP2C19) | IC50 (human IRAK4) |
| --- | --- | --- | --- | --- | --- | --- | --- | --- | --- |
| COc1cc2nn([C@H]3CC[C@](C)(O)CC3)cc2cc1NC(=O)c1cccc(C)[n+]1[O-] [Compound 001, 2-((2-((1r,4r)-4-hydroxy-4-methylcyclohexyl)-6-methoxy-2H-indazol-5-yl)carbamoyl)-6-methylpyridine 1-oxide] | > 30 µM | 294 µg·h/mL | 375 µg·h/mL | 15.3 h | 11.5 h | 24200 ng/mL | 4 h | > 30 µM | 0.006 µM |
| COc1cc2nn(CCC(C)(C)O)cc2cc1NC(=O)c1cccc(C)[n+]1[O-] [Compound 163, 2-((2-(3-hydroxy-3-methylbutyl)-6-methoxy-2H-indazol-5-yl)carbamoyl)-6-methylpyridine 1-oxide] | > 30 µM | 207 µg·h/mL | 207 µg·h/mL | 6.75 h | 3.62 h | 25900 ng/mL | 4 h | > 30 µM | 0.023 µM |
